Results reported in patent US10273226B2, “Pyrazolyl-heteroarylamides as pesticides” (Bayer Animal Health GmbH, priority 2014, dated 2019).

Tests used:
Type in all cases: in vivo
Rhipicephalus sanguineus = Rhipicephalus sanguineus in vitro contact test with adult brown dog ticks; settings: after 48 h, ticks dead or moribund
Summary of the method: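 Test tubes (25 ml) were coated by dissolving active ingredient in acetone p.a., diluting to the required concentration, and spreading 250 μl over the inner walls and base on an orbital shaker at 30 rpm for 2 h. Once dry, 5-10 adult Rhipicephalus sanguineus were added, and tubes were capped with perforated lids and kept horizontal in darkness at room temperature. At 48 h, ticks were knocked down and heated at 45-50° C. for up to 5 min. Those unable to climb away were counted dead or moribund, and efficacy ran from 0% to 100%.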

Boophilus microplus = Boophilus microplus injection test; settings: application rate 20 μg/animal; injection into abdomen; assessed after 7 days
Summary of the method: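 Steps: dilute compound in DMSO to the desired concentration; inject 1 μl abdominally into 5 engorged adult females; keep in climate-controlled dishes; at 7 days score fertile egg laying, incubating doubtful eggs until hatch at about 42 days.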

Ctenocephalides felis [1] = test: Ctenocephalides felis oral test; settings: application rate 100 ppm in citrated cattle blood; after 2 days
Summary of the method: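 Percentage mortality recorded at 2 days, where 0% means no fleas killed. Compound dissolved in DMSO and diluted in citrated cattle blood, which roughly 20 unfed adult C. felis imbibe via a parafilm membrane.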

Lucilia cuprina = Lucilia cuprina test; settings: application rate 100 ppm; L1 larvae; after 2 days
Summary of the method: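 Mortality read at 2 days as percent larvae killed (100% = all, 0% = none). Test used roughly 20 first-instar larvae on minced horsemeat dosed with water-diluted DMSO formulation of compound.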

Myzus persicae = Myzus persicae spray test; settings: after 6 days
Method: Myzus persicae—Spray Test
To produce an appropriate active ingredient formulation, 1 part by weight of active ingredient is dissolved using the specified parts by weight of solvent and made up with water containing an emulsifier concentration of 1000 ppm until the desired concentration is attained. To produce further test concentrations, the preparation is diluted with emulsifier-containing water.
Discs of Chinese cabbage leaves (Brassica pekinensis) infested by all stages of the green peach aphid (Myzus persicae) are sprayed with an active ingredient formulation of the desired concentration.
After 6 days, efficacy in % is determined. 100% means that all the aphids have been killed; 0% means that none of the aphids have been killed.

Phaedon cochleariae = Phaedon cochleariae spray test; settings: larvae, after 7 days
Summary of the method: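 Mortality of Phaedon larvae, in %, was read 7 days after release onto sprayed, dried Brassica pekinensis leaf discs. Test dilutions were prepared in water with 1000 ppm emulsifier. A score of 0% means no larvae died and 100% means all were killed.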

Spodoptera frugiperda = Spodoptera frugiperda spray test; settings: caterpillars, after 7 days
Summary of the method: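 Percent kill of armyworm caterpillars was scored 7 days after they were placed on dried, sprayed Zea mays leaf discs. Spray solutions were made by dissolving active ingredient in solvent and diluting with 1000 ppm emulsifier water.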

Tetranychus urticae = Tetranychus urticae spray test, OP-resistant; settings: after 6 days
Summary of the method: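 Percent kill is assessed 6 days after spraying infested Phaseolus vulgaris leaf discs, with all mite stages present. Compound is applied as a solvent/emulsifier aqueous formulation at the desired concentration.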

Ctenocephalides felis [2] = test: Ctenocephalides felis in vitro contact test with adult cat fleas; settings: after 48 h, fleas dead or moribund
Method: Ctenocephalides felis—In Vitro Contact Tests with Adult Cat Fleas
For the coating of the test tubes, 9 mg of active ingredient are first dissolved in 1 ml of acetone p.a. and then diluted to the desired concentration with acetone p.a. 250 μl of the solution are distributed homogeneously on the inner walls and base of a 25 ml test tube by turning and rocking on an orbital shaker (rocking rotation at 30 rpm for 2 h). With 900 ppm active ingredient solution and internal surface 44.7 cm^2, given homogeneous distribution, an area-based dose of 5 μg/cm^2 is achieved.
After the solvent has evaporated off, the tubes are populated with 5-10 adult cat fleas (Ctenocephalides felis), sealed with a perforated plastic lid and incubated in a horizontal position at room temperature and ambient humidity. After 48 h, efficacy is determined. To this end, the test tubes are stood upright and the fleas are knocked to the base of the tube. Fleas which remain motionless at the base or move in an uncoordinated manner are considered to be dead or moribund.
100% efficacy means that all the fleas were dead or moribund. 0% efficacy means that no fleas were harmed.

Musca domestica = Musca domestica test; settings: application rate 100 ppm; adult houseflies; after 2 days
Method: Solvent: dimethyl sulphoxide
To produce an appropriate active ingredient formulation, 10 mg of active ingredient are mixed with 0.5 ml of dimethyl sulphoxide, and the concentrate is diluted with water to the desired concentration.
Vessels containing a sponge treated with sugar solution and the active ingredient formulation of the desired concentration are populated with 10 adult houseflies (Musca domestica).
After 2 days, the kill in % is determined. 100% means that all of the flies have been killed; 0% means that none of the flies have been killed.

[3] = application rate 5 μg/cm^2 (500 g/ha)
[4] = application rate 1 μg/cm^2 (100 g/ha)

| Structure (SMILES) | efficacy (Rhipicephalus sanguineus; [3]) | efficacy (laying of fertile eggs) (Boophilus microplus) | efficacy (kill in %) (Ctenocephalides felis [1]) | efficacy (kill in %) (Lucilia cuprina) | efficacy (Myzus persicae; application rate 100 g/ha) | efficacy (Phaedon cochleariae; application rate 500 g/ha) | efficacy (Spodoptera frugiperda; application rate 500 g/ha) | efficacy (Tetranychus urticae; application rate 500 g/ha) | efficacy (Ctenocephalides felis [2]; [3]) | efficacy (Phaedon cochleariae; application rate 100 g/ha) | efficacy (Spodoptera frugiperda; application rate 100 g/ha) | efficacy (Tetranychus urticae; application rate 100 g/ha) | efficacy (kill in %) (Musca domestica) | efficacy (Ctenocephalides felis [2]; [4]) | efficacy (Myzus persicae; application rate 500 g/ha) | efficacy (Rhipicephalus sanguineus; [4]) | efficacy (Tetranychus urticae; application rate 20 g/ha) |
| --- | --- | --- | --- | --- | --- | --- | --- | --- | --- | --- | --- | --- | --- | --- | --- | --- | --- |
| Cn1nc(C(F)(F)C(F)(F)F)c(C(F)(F)F)c1-n1cc(-c2cccc(NC(=O)C(F)(F)C(F)F)c2)cn1 [Example 1-009] | 100% | 100% | 100% | 100% | 100% | 100% | 100% | 100% |  |  |  |  |  |  |  |  |  |
| Cn1nc(C(F)(F)C(F)(F)F)c(C(F)(F)F)c1-n1cc(-c2cccc(NC(=O)c3ccccc3F)c2)cn1 [Example 1-012] | 100% | 100% | 100% | 100% | 90% |  |  |  | 100% | 100% | 100% | 100% |  |  |  |  |  |
| Cn1nc(C(F)(F)C(F)(F)F)c(C(F)(F)F)c1-n1cc(-c2cccc(NC(=O)c3cccc(F)c3)c2)cn1 [Example 1-013] | 100% | 100% | 100% | 100% |  |  |  |  | 100% | 100% | 100% | 100% | 90% |  |  |  |  |
| Cn1nc(C(F)(F)C(F)(F)F)c(C(F)(F)F)c1-n1cc(-c2cccc(NC(=O)c3cc(F)cc(F)c3)c2)cn1 [Example 1-014] | 100% | 100% | 100% | 100% |  |  |  |  |  | 100% | 100% | 90% | 90% | 80% |  |  |  |
| Cn1nc(C(F)(F)C(F)(F)F)c(C(F)(F)F)c1-n1cc(-c2cccc(NC(=O)c3ccsc3)c2)cn1 [Example 1-016] | 100% | 100% | 100% | 100% |  | 100% | 100% | 100% | 100% |  |  |  |  |  | 90% |  |  |
| Cn1nc(C(F)(F)C(F)(F)F)c(C(F)(F)F)c1-n1cc(-c2cccc(NC(=O)c3cccs3)c2)cn1 [Example 1-017] | 100% | 100% | 100% | 100% | 90% |  |  |  |  | 100% | 100% | 100% |  |  |  |  |  |
| Cn1nc(C(F)(F)C(F)(F)F)c(C(F)(F)F)c1-n1cc(-c2cccc(NC(=O)c3cccnc3Cl)c2)cn1 [Example 1-028] | 100% | 100% | 100% | 100% |  |  |  |  | 100% | 100% | 100% | 100% | 100% |  |  |  |  |
| Cn1nc(C(F)(F)C(F)(F)F)c(C(F)(F)F)c1-n1cc(-c2ccc(F)c(NC(=O)C(F)(F)C(F)F)c2)cn1 [Example 1-033] |  | 100% | 100% | 100% | 90% |  |  |  |  | 83% |  | 100% |  |  |  | 100% |  |
| Cn1nc(C(F)(F)C(F)(F)F)c(C(F)(F)F)c1-n1cc(-c2ccc(F)c(NC(=O)c3ccncn3)c2)cn1 [Example 1-034] | 100% | 100% | 100% | 100% |  |  |  |  | 100% | 100% | 100% | 100% | 100% |  |  |  |  |
| COCC(=O)Nc1cc(-c2cnn(-c3c(C(F)(F)F)c(C(F)(F)C(F)(F)F)nn3C)c2)ccc1F [Example 1-048] | 100% | 100% | 95% | 95% | 90% |  |  |  |  |  |  | 100% |  |  |  |  |  |
| Cn1nc(C(F)(F)C(F)(F)F)c(C(F)(F)F)c1-n1cc(-c2ccc(F)c(NC(=O)C3(C)CC3)c2)cn1 [Example 1-058] | 100% | 100% | 100% | 100% |  |  |  |  | 100% |  | 83% | 100% | 80% |  |  |  |  |
| Cn1nc(C(F)(F)C(F)(F)F)c(C(F)(F)F)c1-n1cc(-c2ccc(F)c(NC(=O)c3ccc(Cl)c(F)c3)c2)cn1 [Example 1-096] | 100% | 100% | 100% | 100% |  |  |  |  | 100% | 100% | 100% | 100% | 90% |  |  |  |  |
| CN(C)C(=O)C(=O)Nc1cc(-c2cnn(-c3c(C(F)(F)F)c(C(F)(F)C(F)(F)F)nn3C)c2)ccc1F [Example 1-127] | 100% | 100% | 100% | 100% |  |  |  |  | 100% | 100% | 100% |  | 100% |  |  |  |  |
| Cc1ncc(-c2cnn(-c3c(C(F)(F)F)c(C(F)(F)C(F)(F)F)nn3C)c2)cc1NC(=O)c1ccc(F)cc1 [Example 2-003] | 100% | 100% | 100% | 100% |  |  |  |  |  | 100% | 100% | 100% | 100% |  |  |  |  |
| Cn1nc(C(F)(F)C(F)(F)F)c(C(F)(F)F)c1-n1cc(-c2cnc(F)c(NC(=O)c3ccncc3)c2)cn1 [Example 2-005] |  | 100% | 100% | 100% |  |  |  |  | 100% | 100% | 100% |  | 90% |  |  | 80% | 100% |
| Cn1nc(C(F)(F)C(F)(F)F)c(C(F)(F)F)c1-n1cc(-c2cnc(Cl)c(NC(=O)c3ccncc3)c2)cn1 [Example 2-006] | 80% | 100% | 100% | 100% |  |  |  |  | 100% | 100% | 100% | 100% | 90% |  |  |  |  |
